Source: ChEMBL document CHEMBL4354864, “Bicyclic α-Iminophosphonates as High Affinity Imidazoline I2 Receptor Ligands for Alzheimer's Disease” (J Med Chem, 2020)
Values after ≈ are worked out from the molar mass of the structure shown. Active and inactive are the calls of the source. The rule behind the calls is not given here.

How the values were obtained:
[1] = Stability in human liver microsomes at 5 uM incubated for 60 mins by UPLC-MS/MS analysis; type: ADME, Microsome; conditions: 1 h
[2] = target: Voltage-gated inwardly rectifying potassium channel KCNH2 (Homo sapiens, UniProt Q12809); assay: Inhibition of recombinant human ERG expressed in CHO cells by patch clamp assay; type: cell-based
Sequence of Voltage-gated inwardly rectifying potassium channel KCNH2 (Q12809 whole entry): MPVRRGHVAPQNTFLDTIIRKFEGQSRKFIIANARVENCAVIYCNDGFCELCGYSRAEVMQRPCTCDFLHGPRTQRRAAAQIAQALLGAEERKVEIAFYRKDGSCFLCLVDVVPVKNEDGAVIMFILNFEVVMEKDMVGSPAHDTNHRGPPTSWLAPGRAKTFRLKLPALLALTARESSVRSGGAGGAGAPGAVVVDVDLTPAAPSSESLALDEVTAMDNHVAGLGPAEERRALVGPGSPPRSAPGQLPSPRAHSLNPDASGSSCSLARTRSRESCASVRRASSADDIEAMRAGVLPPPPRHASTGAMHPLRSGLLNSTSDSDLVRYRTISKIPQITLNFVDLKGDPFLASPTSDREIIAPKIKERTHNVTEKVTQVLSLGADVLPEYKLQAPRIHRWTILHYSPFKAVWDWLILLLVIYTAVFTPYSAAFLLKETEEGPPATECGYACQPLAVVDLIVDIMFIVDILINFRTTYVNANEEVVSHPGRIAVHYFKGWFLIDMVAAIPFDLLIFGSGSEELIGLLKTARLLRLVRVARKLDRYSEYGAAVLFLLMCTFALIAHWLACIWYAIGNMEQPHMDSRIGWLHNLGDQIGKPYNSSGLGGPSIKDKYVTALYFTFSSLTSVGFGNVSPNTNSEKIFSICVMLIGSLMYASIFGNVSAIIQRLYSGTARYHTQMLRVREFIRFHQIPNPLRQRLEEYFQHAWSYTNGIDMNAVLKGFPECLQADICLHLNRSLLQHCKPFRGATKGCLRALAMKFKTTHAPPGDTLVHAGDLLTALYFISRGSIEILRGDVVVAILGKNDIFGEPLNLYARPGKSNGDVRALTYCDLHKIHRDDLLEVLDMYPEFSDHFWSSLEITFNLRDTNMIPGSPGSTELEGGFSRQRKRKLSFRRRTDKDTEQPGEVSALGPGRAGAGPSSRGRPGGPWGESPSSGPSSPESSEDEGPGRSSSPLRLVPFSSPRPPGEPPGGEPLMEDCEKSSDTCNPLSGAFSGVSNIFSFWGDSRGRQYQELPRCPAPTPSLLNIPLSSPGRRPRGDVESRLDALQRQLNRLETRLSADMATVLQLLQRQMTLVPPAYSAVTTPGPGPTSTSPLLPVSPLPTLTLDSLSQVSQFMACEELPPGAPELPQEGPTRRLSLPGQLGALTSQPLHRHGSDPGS

[3] = system: Mus musculus; assay: Antineuroinflammatory activity in mouse model of 5xFAD assessed as reduction in sAPPbeta expression at 5 mg/kg, po administered for 4 weeks by Western blot analysis; type: functional, organism-based
[4] = Chemical stability of compound by HPLC analysis; type: physicochemical
[5] = target: Nischarin (Homo sapiens, UniProt Q9Y2I1); assay: Displacement of [3H]clonidine from I1IR in human brain frontal cortex in presence of adrenaline incubated for 45 mins by liquid scintillation spectrometry; type: tissue-based
Sequence of Nischarin (Q9Y2I1 whole entry): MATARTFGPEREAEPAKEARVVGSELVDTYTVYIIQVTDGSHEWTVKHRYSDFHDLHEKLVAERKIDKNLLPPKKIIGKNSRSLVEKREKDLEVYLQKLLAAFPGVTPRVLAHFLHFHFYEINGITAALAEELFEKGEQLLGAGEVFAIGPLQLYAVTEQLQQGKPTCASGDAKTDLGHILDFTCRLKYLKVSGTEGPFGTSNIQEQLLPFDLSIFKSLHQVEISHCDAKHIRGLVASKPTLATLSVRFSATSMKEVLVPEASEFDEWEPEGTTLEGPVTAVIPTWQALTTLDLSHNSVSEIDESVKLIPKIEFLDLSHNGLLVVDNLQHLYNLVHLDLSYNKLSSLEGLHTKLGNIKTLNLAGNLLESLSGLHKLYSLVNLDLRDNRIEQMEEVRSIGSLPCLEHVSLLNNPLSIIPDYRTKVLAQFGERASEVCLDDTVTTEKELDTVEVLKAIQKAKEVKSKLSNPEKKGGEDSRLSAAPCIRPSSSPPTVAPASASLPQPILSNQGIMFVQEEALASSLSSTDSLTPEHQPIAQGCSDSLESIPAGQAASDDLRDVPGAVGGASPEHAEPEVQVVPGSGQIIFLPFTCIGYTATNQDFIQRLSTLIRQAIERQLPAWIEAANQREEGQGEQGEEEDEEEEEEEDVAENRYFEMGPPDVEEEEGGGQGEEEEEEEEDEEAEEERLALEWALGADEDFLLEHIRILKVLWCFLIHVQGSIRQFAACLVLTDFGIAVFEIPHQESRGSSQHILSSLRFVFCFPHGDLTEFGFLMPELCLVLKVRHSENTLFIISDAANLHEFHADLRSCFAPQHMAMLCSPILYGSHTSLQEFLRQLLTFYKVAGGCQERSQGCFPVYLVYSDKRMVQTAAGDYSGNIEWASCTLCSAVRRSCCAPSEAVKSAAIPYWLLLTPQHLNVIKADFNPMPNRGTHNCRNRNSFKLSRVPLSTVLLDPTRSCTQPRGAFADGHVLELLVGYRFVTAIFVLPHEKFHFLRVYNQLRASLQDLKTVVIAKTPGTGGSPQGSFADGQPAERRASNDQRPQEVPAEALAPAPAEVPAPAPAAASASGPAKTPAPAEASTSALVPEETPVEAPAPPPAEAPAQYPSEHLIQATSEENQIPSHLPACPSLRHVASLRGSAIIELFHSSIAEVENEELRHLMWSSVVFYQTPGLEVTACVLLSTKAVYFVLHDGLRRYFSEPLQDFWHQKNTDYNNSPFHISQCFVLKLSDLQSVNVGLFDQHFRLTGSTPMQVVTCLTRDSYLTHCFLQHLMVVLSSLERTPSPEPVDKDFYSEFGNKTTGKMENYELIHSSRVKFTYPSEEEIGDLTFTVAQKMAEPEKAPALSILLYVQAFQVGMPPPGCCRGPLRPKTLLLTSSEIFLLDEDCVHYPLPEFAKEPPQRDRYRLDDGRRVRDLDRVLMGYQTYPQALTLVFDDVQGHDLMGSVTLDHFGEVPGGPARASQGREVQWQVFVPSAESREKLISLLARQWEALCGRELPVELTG

[6] = system: HeLa; assay: Cytotoxicity against human HeLa cells assessed as reduction in cell viability at 100 uM incubated for 3 to 5 days by colorimetric analysis; type: cell-based
[7] = Displacement of [3H]2-BFI from I2IR in Sprague-Dawley rat brain cortex incubated for 45 mins by liquid scintillation spectrometry
[8] = Solubility of compound in 1% DMSO incubated for 2 hrs by nephelometry; type: physicochemical
[9] = target: Cytochrome P450 2C19 (Homo sapiens, UniProt P33261); assay: Inhibition of recombinant human CYP2C19 at 10 uM using 3-cyano-7-ethoxycoumarin as substrate incubated for 5 mins followed by substrate addition by fluorescence based assay; type: ADME; conditions: recombinant enzyme
Sequence of Cytochrome P450 2C19 (P33261 whole entry): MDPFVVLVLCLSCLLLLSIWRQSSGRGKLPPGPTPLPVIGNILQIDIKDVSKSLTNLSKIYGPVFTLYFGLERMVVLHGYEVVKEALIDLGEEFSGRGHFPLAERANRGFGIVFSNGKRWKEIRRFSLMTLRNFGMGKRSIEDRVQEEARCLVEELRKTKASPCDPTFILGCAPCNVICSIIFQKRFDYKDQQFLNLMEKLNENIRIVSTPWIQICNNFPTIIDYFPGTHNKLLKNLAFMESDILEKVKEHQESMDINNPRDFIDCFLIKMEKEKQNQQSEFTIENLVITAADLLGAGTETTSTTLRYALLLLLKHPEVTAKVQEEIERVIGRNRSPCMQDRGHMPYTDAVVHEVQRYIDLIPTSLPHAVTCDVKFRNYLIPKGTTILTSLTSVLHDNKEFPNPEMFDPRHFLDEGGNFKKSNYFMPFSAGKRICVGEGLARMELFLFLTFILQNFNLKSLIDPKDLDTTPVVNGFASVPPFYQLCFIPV

[10] = system: Mus musculus; assay: Antineuroinflammatory activity in mouse model of 5xFAD assessed as reduction in H2O2 level at 5 mg/kg, po administered for 4 weeks; type: functional, organism-based
[11] = system: Mus musculus; assay: Antineuroinflammatory activity in mouse model of 5xFAD assessed as effect on Hmox1 expression at 5 mg/kg, po administered for 4 weeks by qRT-PCR analysis; type: functional, organism-based
[12] = Cytotoxicity against human MRC5 cells assessed as reduction in cell viability incubated for 3 to 5 days by colorimetric analysis; type: cell-based
[13] = system: MT4; assay: Cytotoxicity against human MT4 cells assessed as effect on cell morphology at 100 uM incubated for 3 to 5 days by microscopic analysis; type: cell-based; conditions: mt4, 100 µM
[14] = target: Cytochrome P450 2D6 (Homo sapiens, UniProt P10635); assay: Inhibition of recombinant human CYP2D6 at 10 uM using AMMC as substrate incubated for 5 mins followed by substrate addition by fluorescence based assay; type: ADME; conditions: recombinant enzyme
Sequence of Cytochrome P450 2D6 (P10635 whole entry): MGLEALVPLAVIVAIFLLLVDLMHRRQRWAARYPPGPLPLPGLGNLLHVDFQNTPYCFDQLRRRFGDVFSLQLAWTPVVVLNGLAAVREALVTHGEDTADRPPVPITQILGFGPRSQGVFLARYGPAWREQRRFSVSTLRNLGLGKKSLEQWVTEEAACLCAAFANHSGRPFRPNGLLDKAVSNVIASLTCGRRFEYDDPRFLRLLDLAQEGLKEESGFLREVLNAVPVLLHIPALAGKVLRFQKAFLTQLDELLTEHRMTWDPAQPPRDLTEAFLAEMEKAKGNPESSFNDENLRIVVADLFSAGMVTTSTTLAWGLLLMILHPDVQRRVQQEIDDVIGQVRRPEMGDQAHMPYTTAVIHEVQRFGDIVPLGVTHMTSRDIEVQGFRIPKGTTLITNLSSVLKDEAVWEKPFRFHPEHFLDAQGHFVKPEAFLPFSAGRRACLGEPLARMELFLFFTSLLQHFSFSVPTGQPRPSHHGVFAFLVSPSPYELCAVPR

[15] = target: T1, Cytochrome P450 1A2 (Homo sapiens, UniProt P05177); assay: Inhibition of recombinant human CYP1A2 at 10 uM using 3-cyano-7-ethoxycoumarin as substrate incubated for 5 mins followed by substrate addition by fluorescence based assay; type: ADME; conditions: recombinant enzyme
T1 sequence (P05177 whole entry): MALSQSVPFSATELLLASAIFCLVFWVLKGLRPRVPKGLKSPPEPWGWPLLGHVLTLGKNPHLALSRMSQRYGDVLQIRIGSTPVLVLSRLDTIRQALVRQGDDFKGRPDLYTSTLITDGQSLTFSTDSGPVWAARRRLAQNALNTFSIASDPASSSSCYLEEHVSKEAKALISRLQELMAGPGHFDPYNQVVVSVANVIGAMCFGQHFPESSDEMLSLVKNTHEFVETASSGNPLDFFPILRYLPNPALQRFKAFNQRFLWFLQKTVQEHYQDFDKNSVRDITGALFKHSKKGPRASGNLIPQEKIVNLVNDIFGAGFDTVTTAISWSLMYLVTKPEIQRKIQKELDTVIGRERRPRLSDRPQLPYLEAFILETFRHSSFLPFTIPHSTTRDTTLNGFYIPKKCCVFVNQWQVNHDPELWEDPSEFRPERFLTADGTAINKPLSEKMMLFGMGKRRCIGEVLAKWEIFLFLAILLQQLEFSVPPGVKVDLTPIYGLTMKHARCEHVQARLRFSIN

[16] = Solubility of compound in 99% PBS buffer incubated for 2 hrs by nephelometry; type: physicochemical
[17] = system: Mus musculus; assay: Antineuroinflammatory activity in mouse model of 5xFAD assessed as reduction in Cxcl10 expression at 5 mg/kg, po administered for 4 weeks by qRT-PCR analysis; type: functional, organism-based
[18] = Displacement of [3H]2-BFI from I2IR in Swiss mouse brain cortex incubated for 45 mins by liquid scintillation spectrometry
[19] = system: Mus musculus; assay: Antineuroinflammatory activity in mouse model of 5xFAD assessed as reduction in TNFalpha expression at 5 mg/kg, po administered for 4 weeks by qRT-PCR analysis; type: functional, organism-based
[20] = target: T2, Gastrin/cholecystokinin type B receptor (Homo sapiens, UniProt P32239); assay: Displacement of [125I]CCK-8s from human CCKB incubated for 60 mins by scintillation counting method
T2 sequence (P32239 whole entry): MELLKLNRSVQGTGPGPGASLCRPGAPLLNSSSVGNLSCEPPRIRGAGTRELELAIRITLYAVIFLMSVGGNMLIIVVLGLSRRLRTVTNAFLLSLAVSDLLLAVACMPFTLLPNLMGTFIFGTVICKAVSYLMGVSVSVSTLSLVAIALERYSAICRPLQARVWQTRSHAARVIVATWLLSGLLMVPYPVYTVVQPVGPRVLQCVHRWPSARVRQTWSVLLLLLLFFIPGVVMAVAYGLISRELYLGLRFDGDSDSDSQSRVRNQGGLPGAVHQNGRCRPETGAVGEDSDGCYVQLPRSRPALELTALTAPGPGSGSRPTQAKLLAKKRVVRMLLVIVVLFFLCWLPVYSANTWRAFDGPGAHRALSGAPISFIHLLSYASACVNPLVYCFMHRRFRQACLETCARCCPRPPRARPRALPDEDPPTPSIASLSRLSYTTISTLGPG

[21] = system: Mus musculus; assay: Effect on FADD in CD-1 mouse at 20 mg/kg, ip measured after 1 hr by Westernblot analysis; type: functional
[22] = Effective permeability of compound by PAMPA-BBB assay; type: ADME; conditions: read-out: Peff
[23] = Solubility of compound in acetonitrile incubated for 2 hrs by nephelometry; type: physicochemical
[24] = Solubility of compound in methanol incubated for 2 hrs by nephelometry; type: physicochemical
[25] = system: Mus musculus; assay: Induction of hypothermia in CD-1 mouse assessed as reduction in body temperature at 20 mg/kg, ip administered for 5 days by thermometric method; type: functional, organism-based
[26] = Stability in mouse liver microsomes at 5 uM incubated for 60 mins by UPLC-MS/MS analysis; type: ADME, Microsome; conditions: 1 h
[27] = system: Mus musculus; assay: Antineuroinflammatory activity in mouse model of 5xFAD assessed as effect on iNOS expression at 5 mg/kg, po administered for 4 weeks by qRT-PCR analysis; type: functional, organism-based
[28] = system: Mus musculus; assay: Cognitive enhancing effect in mouse model of 5xFAD assessed as increase in recognition memory at 5 mg/kg, po administered for 28 days and measured after 2 hrs of last dosage by novel object recognition test; type: functional, organism-based
[29] = target: Cytochrome P450 2C9 (Homo sapiens, UniProt P11712); assay: Inhibition of recombinant human CYP2C9 at 10 uM using 7-methoxy-4-(trifluoromethyl)coumarin as substrate incubated for 5 mins followed by substrate addition by fluorescence based assay; type: ADME; conditions: recombinant enzyme
Sequence of Cytochrome P450 2C9 (P11712 whole entry): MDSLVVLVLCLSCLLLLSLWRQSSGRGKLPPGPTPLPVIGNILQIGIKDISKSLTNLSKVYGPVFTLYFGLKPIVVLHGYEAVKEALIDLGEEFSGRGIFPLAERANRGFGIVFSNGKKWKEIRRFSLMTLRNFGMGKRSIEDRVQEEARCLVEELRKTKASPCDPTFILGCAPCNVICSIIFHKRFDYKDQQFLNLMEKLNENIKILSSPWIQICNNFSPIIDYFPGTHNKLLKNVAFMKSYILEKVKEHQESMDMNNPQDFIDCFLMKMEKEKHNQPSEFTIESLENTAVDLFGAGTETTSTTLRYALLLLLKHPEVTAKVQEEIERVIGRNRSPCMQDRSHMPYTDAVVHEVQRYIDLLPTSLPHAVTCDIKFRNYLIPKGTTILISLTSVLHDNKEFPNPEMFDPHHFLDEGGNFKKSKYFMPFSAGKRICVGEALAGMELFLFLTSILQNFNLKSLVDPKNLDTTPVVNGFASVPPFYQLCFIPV

In the case of `CCOP(=O)(OCC)C1(c2ccccc2)N=CC2C(=O)N(c3ccc(F)c(Cl)c3)C(=O)C21` (racemic), the Stability [1] is reported as “Stable”, the “inhibition (INH)” value [2] is reported as “Not Active” and the Activity [3] is reported as “Active”. For the same compound, the Stability [4] was 100%, the IC50 [5] was 912 µM and the Ki [5] was 912 µM. The Activity [6] was “Non-Toxic”, the pKi [7] was 6.92 and the solubility kinetic at 2 h [8] was 92 µM (≈ 44.1 µg/mL). The “inhibition (INH)” value [9] was “Not Active”, the Activity [10] was “Active” and the Activity [11] was “Active”. For the same compound, the CC50 [12] was greater than 100 µM, the Activity [13] was “Non-Toxic” and the “inhibition (INH)” value [14] was “Not Active”. For the same compound, the “inhibition (INH)” value [15] was “Not Active”, the solubility kinetic at 2 h [16] was 92 µM (≈ 44.1 µg/mL) and the Activity [17] was “Active”. The pKi [18] was 6.41, the Activity [19] was “Active” and the IC50 [20] was greater than 10 µM. The Activity [21] was -30%, the Papp [22] was 9.7 ×10⁻⁶ cm/s and the solubility [23] was “Soluble”. For the same compound, the solubility [24] was “Soluble”, the T [25] was “inactive” and the Stability [26] was “Stable”. For the same compound, the Activity [27] was “Active”, the Activity [28] was “Active” and the “inhibition (INH)” value [29] was “Not Active”.
